Measured values reported in patent publication US11053170B2, “Liquid urease inhibitor formulations” (YARA INTERNATIONAL ASA, priority 2016, dated 2021).

Tests used:
[1] = system: rat; details: cited from earlier work
[2] = Stability of nBTPT on urea granules (coated); type: physicochemical; details: 500 ppm, bagged, room temperature
Method: In a next step, the nBTPT material was slowly added. A residence time of 10 minutes was applied and the rotating speed of the drum was consequently the same in each experiment. Larger scale experiments with amounts up to 40 kg of fertilizer material were performed in a concrete mixer.
The samples were stored under several conditions, dependent on the type of samples: • Bagged at room temperature (20° C.) or in a Nissen hut (an unconditioned bulk storage hall) • Open to air in a Nissen hut
Typically, a day/night cycle is generated in the Nissen hut, with temperature fluctuations between 0 to 42° C. and fluctuations of relative humidity between 20 and 90%, which can be compared with real life storage in silos.

[3] = system: urease; details: on urea; Rheinland soil (pH 6.5) and Palencia soil (pH 7.5); 25° C., 14 days
Method: Erlenmeyer flasks were filled with 300 g air-dried, arable topsoil, irrigated to a desired % of its WHC (Water Holding Capacity), incubated for 6 days prior to the application of the fertilizers. Fertilizers (2.5-3.15 mm granule size) at a concentration of 100 mg N (Nitrogen)/flask were applied over the soil surface. Boric acid traps were installed to catch volatile ammonia from the air above the topsoil, and the Erlenmeyer flasks were installed in a Phytotron chamber at 25° C. at windy but not dry conditions.

| Structure (SMILES) | toxicity oral rat LD50 [1] | nBTPT degradation in 155 days [2] | urease inhibitory activity and volatilization control (cumulated volatile ammonia losses) [3] |
| --- | --- | --- | --- |
| CN1CCCC1 [NMP, N-methylpyrrolidine] | 3914 mg/kg |  |  |
| CCCCNP(N)(N)=S [nBTPT, N-(n-butyl) thiophosphoric triamide] |  | about 75% | no statistically significant difference |
